Results taken from article PMC6413952, “Discovery of ABBV-4083, a novel analog of Tylosin A that has potent anti-Wolbachia and anti-filarial activity” (PLoS Neglected Tropical Diseases, 2019).
Like-named read-outs stand apart in the source and are kept apart here.

Key:
[1] = tested on: Wolbachia pipientis in Aedes albopictus C6/36 (wAlbB) insect cells; assay: A·WOL Wolbachia-infected Aedes albopictus (C6/36 wAlbB) 7-day cell-based assay, high content imaging
Text: Compounds were screened for anti-Wolbachia activity in vitro in the A·WOL-validated Wolbachia-infected Aedes albopictus (C6/36 wAlbB) 7-day cell-based assay which utilizes a 384-well format assay with high content imaging (HCI) (Operetta) as described previously.
We began our work by selecting a diverse and representative sample of the AbbVie antibiotics collection (129 compounds) for single-point testing against Wolbachia pipientis in an insect cell line. […] While TylA has a long history of use in multiple animal species, it has never been studied in humans; and its activity against Wolbachia has not previously been reported.

[2] = tested on: Litomosoides, Brugia and Onchocerca; design: method as in PMID 30867321; conditions: cited from earlier work; for anti-Wolbachia efficacy compared with doxycycline: shorter durations of treatment
receptors = assay: Battery of 35 assays assessing general selectivity; assay type: binding; conditions: maximum concentration of 10 μM
Text: (§1) As a preclinical candidate, ABBV-4083 has been evaluated in a variety of in vitro assays assessing preclinical safety. […] In preparation for first-in-human studies, the safety of ABBV-4083 has been extensively evaluated in 28-day GLP general and reproductive toxicity studies. In addition, the synthesis has been adapted to produce GMP quality supplies.

hERG channel = hERG channel (Homo sapiens, UniProt Q12809); assay: Functional hERG channel activity; assay type: biochemical; conditions: maximum concentration of 30 μM
Text: as §1

[3] = In vitro genotoxicity screening assays; assay type: cell-based
Text: as §1

[4] = In vitro high-content steatosis screen; assay type: cell-based
Text: as §1

[5] = tested on: gram(+) and gram(-) microorganisms; design: method as in PMID 30867321; conditions: majority of panel; cited from earlier work
[6] = tested on: 77 mammalian receptors, ion channels, enzymes and transporters; design: method as in PMID 30867321; conditions: cited from earlier work
[7] = Cardiovascular effects in dogs; assay type: in vivo; conditions: administered to dogs
Text: as §1

[8] = Rat oral pharmacokinetic study (plasma AUC, C8hr); assay type: in vivo, Sprague-Dawley rats; conditions: for AUC*/EC50: potency-weighted AUC
Experimental: PO doses were administrated by oral gavage, IP doses by intraperitoneal injection to BALB/c mice or Sprague-Dawley rats (Charles River Laboratories, USA). Serial blood samples collected into EDTA anticoagulant for plasma concentration analysis were obtained from each animal after dosing. EDTA preserved plasma samples were extracted by protein precipitation with acetonitrile fortified with internal standards. The supernatant was injected into an HPLC-MS/MS system for separation and quantitation. Detection was accomplished using a triple quadrupole mass spectrometer operated either in electrospray or atmospheric chemical ionization (APCI) mode. The area under the plasma concentration-time curve (AUC) was calculated using the linear trapezoidal rule.

[9] = tested on: Litomosoides sigmodontis / Wolbachia; assay: Litomosoides sigmodontis microfilariae-positive jird model; assay type: in vivo, jirds (Meriones unguiculatus)
Experimental: As described previously, female BALB/c mice or female jirds were infected at 6–8 weeks of age with L. sigmodontis larvae through the bites of Ornithonyssus bacoti mites.
Starting at 14 weeks post infection, microfilariae-positive jirds (n = 7 per group) were dosed PO with ABBV-4083 (150 mg/kg QD) dissolved in 0.5% HPMC/0.02% Tween-80 or vehicle using a volume of 5ml/kg. Microfilariae numbers were assessed through visual inspection of blood samples collected from the saphenous vein at weekly intervals post-dosing. For this, 10 μl of peripheral blood were diluted in 300 μl of Hinkelmann solution (0.5% Eosin Y, 0.5% Phenol, 0.185% Formaldehyde in aqua dest). After 5 minutes of centrifugation at 400g, the supernatant was discarded and the pellet transferred for microscopic quantification of the microfilariae. At 16 weeks post-treatment, jirds were euthanized by an overdose of isoflurane; worms were recovered from the pleural cavity and counted. Remaining intact female adult worms were used to assess embryogenesis and the Wolbachia load. For the latter, genomic DNA (gDNA) was extracted from individual female adult worms and quantification of the Wolbachia ftsZ (wLs-ftsZ) and L. sigmodontis β-actin (Ls-act) gene copy numbers was performed by quantitative real-time PCR (qPCR).
For embryograms, remaining intact female adult worms were individually homogenized in 20% Hinkelmann/80% PBS solution, diluted 1:10 in PBS and quantified by microscopy. Embryonal stages were differentiated as egg, morulae, pretzel and stretched microfilariae.

[10] = In vitro phospholipidosis assay; assay type: cell-based
Text: as §1

Sequence of hERG channel (Q12809 whole entry): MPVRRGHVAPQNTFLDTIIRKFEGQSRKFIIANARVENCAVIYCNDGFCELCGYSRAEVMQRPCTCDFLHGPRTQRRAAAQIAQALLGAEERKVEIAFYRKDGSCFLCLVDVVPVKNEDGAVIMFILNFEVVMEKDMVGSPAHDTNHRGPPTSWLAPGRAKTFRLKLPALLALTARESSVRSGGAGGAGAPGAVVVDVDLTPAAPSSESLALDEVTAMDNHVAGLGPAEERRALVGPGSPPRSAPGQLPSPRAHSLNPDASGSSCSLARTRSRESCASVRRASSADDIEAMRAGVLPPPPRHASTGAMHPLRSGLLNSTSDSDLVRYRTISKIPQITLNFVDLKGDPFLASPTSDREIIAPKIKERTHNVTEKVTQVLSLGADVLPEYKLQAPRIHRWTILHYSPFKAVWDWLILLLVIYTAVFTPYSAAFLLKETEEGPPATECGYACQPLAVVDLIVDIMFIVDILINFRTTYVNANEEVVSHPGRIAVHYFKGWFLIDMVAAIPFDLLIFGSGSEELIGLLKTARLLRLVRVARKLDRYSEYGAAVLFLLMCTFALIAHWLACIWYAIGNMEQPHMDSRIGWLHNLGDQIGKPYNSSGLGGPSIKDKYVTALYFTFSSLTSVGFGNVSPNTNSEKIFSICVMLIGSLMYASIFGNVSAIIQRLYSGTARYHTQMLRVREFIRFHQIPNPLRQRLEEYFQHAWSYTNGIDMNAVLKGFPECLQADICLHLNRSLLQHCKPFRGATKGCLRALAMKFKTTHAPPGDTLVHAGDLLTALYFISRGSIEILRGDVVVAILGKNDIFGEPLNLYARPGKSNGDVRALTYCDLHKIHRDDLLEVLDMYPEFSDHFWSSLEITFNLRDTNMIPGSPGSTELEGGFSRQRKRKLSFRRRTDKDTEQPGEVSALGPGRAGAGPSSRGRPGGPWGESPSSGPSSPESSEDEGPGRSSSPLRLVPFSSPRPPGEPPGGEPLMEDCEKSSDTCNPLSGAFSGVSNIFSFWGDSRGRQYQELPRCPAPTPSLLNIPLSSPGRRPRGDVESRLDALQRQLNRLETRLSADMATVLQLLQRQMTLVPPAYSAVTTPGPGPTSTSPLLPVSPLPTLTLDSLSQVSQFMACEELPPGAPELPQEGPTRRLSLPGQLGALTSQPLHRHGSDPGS

Structure (SMILES): CC[C@H]1OC(=O)C[C@@H](O)[C@H](C)[C@@H](O[C@@H]2O[C@H](C)[C@@H](O[C@H]3C[C@@](C)(O)[C@@H](OCc4ccc(F)cc4)[C@H](C)O3)[C@H](N(C)C)[C@H]2O)[C@@H](CC=O)C[C@@H](C)C(=O)/C=C/C(C)=C/[C@@H]1CO[C@@H]1O[C@H](C)[C@@H](O)[C@@H](OC)[C@H]1OC [Compound 5d]
- EC50 ([1]; C6/36, Wolbachia-infected insect cells, geometric mean (N), each N a duplicate measurement): 0.019 nM
- potency improvement (EC50) over TylA ([1]; EC50 lower than parent TylA): 1,500 fold
- direct microfilaricidal activity [2]: not directly microfilaricidal
- anti-Wolbachia efficacy compared with doxycycline [2]: superior to doxycycline
- anti-Wolbachia efficacy compared with doxycycline ([2]; listed as ABBV-4083): equals or exceeds the efficacy of doxycycline
- interactions with receptors in 35 selectivity assays (receptors): no significant interactions with any receptors
- inhibition of functional hERG channel activity (hERG channel): did not inhibit
- genotoxicity [3]: neither mutagenic nor clastogenic
- steatosis [4]: did not induce steatosis
- change in susceptibility compared with TylA [5]: little to no change in susceptibility
- interactions across 77 assays [6]: significant interaction was only observed in two assays
- cardiovascular effects [7]: did not produce significant cardiovascular effects
- C*8hr ([8]; PO rats, C(8hr)/dose): 0.75 ng/mL per mg/kg
- AUC* parent ([8]; PO, Sprague-Dawley rats, AUC* = AUC/dose): 16 ng-hr/ml per mg/kg
- AUC* TylA (metabolite) ([8]; PO, Sprague-Dawley rats, primary metabolite TylA, AUC/dose): <0.6 ng-hr/ml per mg/kg
- potency-weighted 8-hr drug level (C8hr/dose/EC50) relative to TylA ([8]; oral dosing): 2,000 fold
- potency-weighted AUC (AUC*/EC50) relative to TylA ([8]; oral dosing): 2,500 fold
- improvement in plasma drug levels (AUC) over TylA ([8]; oral dosing, rats): 1.7 fold
- metabolic stability of substituent / species observed in plasma ([8]; oral pharmacokinetic study): only parent drug is observed in the plasma
- C*8hr/ EC50 ([8]; potency-weighted 8-hr drug level, PO rats): 39.5 ng/ml/nM per mg/kg
- AUC*/EC50 ([8]; PO rats): 842 ng-hr/ml/nM per mg/kg
- AUC*/EC50 ([8]; rat): 842,000 ng-hr/ml/uM per mg/kg
- Wolbachia depletion ([9]; 150mg/kg 14days QD, Fig 3A): -99,91%
- embryogenesis (embryograms of female worms) ([9]; 150 mg/kg PO QD 14 days, 16 weeks post treatment start): near-complete loss of all embryonic forms including eggs
- circulating microfilariae ([9]; 150 mg/kg PO QD 14 days, from 12 weeks pti until 16 weeks pti): completely cleared
- reduction of Wolbachia levels in recovered female adult worms ([9]; 150 mg/kg PO once daily for 14 days, 16 weeks post-treatment-initiation): > 99.9%
- phospholipidosis [10]: No potential to induce phospholipidosis
